Results on three molecules are retold here after patent US20080267882A1, “Imaging compounds, methods of making imaging compounds, methods of imaging, therapeutic compounds, methods of making therapeutic compounds, and methods of therapy” (Stanford University, priority 2007, published 2008).

As a reminder, the tissue uptake is the share of the injected amount in each gram of the tissue.

The conditions of series [1]: literature; cited from earlier work.
Series [2] can be described thus: in vivo. The conditions noted are these: female, athymic nude, mouse, iv, total radioactivity. The method, boiled down:
(§1)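 microPET of U87MG-bearing mice after tail-vein injection of about 3.7 MBq ^18F-labelled RGD tracer under isoflurane; 30-min dynamic scan from 1 min p.i. plus 5-min static scans at 1–3 h. Tumour ROIs on decay-corrected coronal images, OSEM reconstruction without attenuation or scatter correction, converted to %ID/g.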

Series [3] in a line: in vivo. The conditions noted are these: c-neu oncomouse (MMTV/c-neu transgenic), mouse, iv, total radioactivity. How it is done: All animal experiments were performed under a protocol approved by Stanford's Administrative Panel on Laboratory Animal Care. […] The c-neu oncomouse (Charles River Laboratories, Charles River, Canada) is a spontaneous tumor-bearing model that carries an activated c-neu oncogene driven by a mouse mammary tumor virus (MMTV) promoter (Cell 1988;54:105-115, which is incorporated herein by reference for the corresponding discussion). Transgenic mice uniformly expressing the MMTV/c-neu gene develop mammary adenocarcinomas between 4 and 8 months postpartum that involve the entire epithelium in each gland. […] Each mouse was tail-vein injected with about 3.7 MBq (100 μCi) of ^18[…]2 under isoflurane anesthesia. The 30-min dynamic scan (1×30 s, 4×1 min, 1×1.5 min, 4×2 min, 1×2.5 min, 4×3 min, total of 15 frames) was started 1 min after injection. Five min static PET images were also acquired at 1 h and 2 h post-injection (p.i.). The images were reconstructed by a 2-dimensional ordered-subsets expectation maximum (OSEM) algorithm and no correction was applied for attenuation or scatter. […] Animal procedures were performed according to a protocol approved by the Stanford University Institutional Animal Care and Use Committee. […] The c-neu oncomouse (Charles River Laboratories, Charles River, Canada) is a spontaneous tumor-bearing model that carries an activated c-neu oncogene driven by a mouse mammary tumor virus (MMTV) promoter (Cell. 1988;54:105-115, which is incorporated herein by reference for the corresponding discussion). Transgenic mice uniformly expressing the MMTV/c-neu gene develop mammary adenocarcinomas between 4 and 8 months postpartum that involve the entire epithelium in each gland. […] PET scans and image analysis were performed using a microPET R4 rodent model scanner (Siemens Medical Solutions) as previously reported. […] Five min static PET images were also acquired at 1, 2, and 3 h p.i. The images were reconstructed by 2-dimensional ordered-subsets expectation maximum (OSEM) algorithm. No attenuation or scatter correction was applied. […] The 5-min static PET scans was then acquired at 30 min and 1 h p.i. […] Animal procedures were performed according to a protocol approved by Stanford University Institutional Animal Care and Use Committee. […] Transgenic mice uniformly expressing the MMTV/c-neu gene develop mammary adenocarcinomas (4 to 8 months postpartum) that involve the entire epithelium in each gland. […] Five minute static scans were acquired at 30 min, 1 h, 2 h, 6 h, and 20 h p.i. […] The radioactivity concentration (accumulation) within a tumor was obtained from the maximum value within the multiple ROIs and then converted to % ID/g.

Series [4] is described as follows: in vivo. The conditions noted are these: female, athymic nude, mouse, total radioactivity. How it is done: All mice were sacrificed and dissected at 20 h post-injection (p.i.) of the tracer. Blood, U87MG tumor, major organs and tissues were collected and wet weighed. The radioactivity in the tissue was measured using a γ-counter (Packard). The results were presented as percentage injected dose per gram of tissue (% ID/g).

Series [5] relates to rat myocardial infarction. The experiment in a line: microPET imaging of rat myocardial infarction. Format: in vivo. To be noted: scan 1 h after injection. The source says: Induction of MI was done as previously described by our laboratory. Adult female Sprague-Dawley rats (weight 150-200 g; Charles River Laboratories, Wilmington, Mass.) were used for this study. […] The anesthesia was then maintained with isoflurane (2%). MI was induced by ligation of the left anterior descending coronary artery 2 to 3 mm from the tip of the left auricle with a 7-0 polypropylene suture. […] In the sham operated animals, a suture was placed in the myocardium (without ligating the left coronary artery). Animals were anesthetized with isofluorane (2%) and injected with approximately 1 mCi (37 MBq) of ^64Cu-DOTA-[…]2) via the tail vein and allowed to recover. […] At the time of scanning, animals were anesthesized with isofluorane (2%) and prone positioned on the microPET Concorde R4 rodent model scanning gantry (Siemens A G, Malvern, Pa.). The scanner has a computer-controlled bed and 10.8-cm transaxial and 8-cm axial fields of view (FOV). […] It has no septa and operates exclusively in the 3-dimensional list mode. A 15 minute static acquisition was performed with the mid thorax in the center of the field of view (FOV), and images reconstructed using a filtered back projection algorithm.

Another series deals with U87MG tumor-bearing mice. The experiment in a line: in vivo. To be noted: mouse. A digest of the protocol: as §1
For series [6] the following is noted: mouse, in vivo. How it is done: A U87MG tumor mouse was intravenously injected with 3.7 MBq of ^18F-FPRGD2. At 1 h after injection, the mouse was sacrificed, the blood, urine, liver, kidneys, and the U87MG tumor were collected and metabolite analysis was carried out as previously reported (J Nucl Med 2006;47: 113-121 and J Nucl Med 2006;47:1172-1180, each of which is incorporated herein by reference for the corresponding discussion). In brief, blood sample was immediately centrifuged for 5 min at 13,200 rpm. Other tissues were homogenized and then centrifuged for 5 min at 13,200 rpm. The supernatant was each passed through a C18 Sep-Pak cartridge. The urine sample was directly diluted with 1 mL of PBS and passed through a C18 Sep-Pak cartridge. The cartridges were each washed with 2 mL of water and eluted with 2 mL of ACN containing 0.1% TFA. The ACN eluent was concentrated and injected onto the analytical HPLC. The eluent was collected with a fraction collector (0.5 min/fraction) and the radioactivity of each fraction was measured with the γ-counter.
The metabolic stability of ^18F-FPTA-RGD2 was evaluated in an athymic nude mouse bearing a U87MG tumor. Sixty min after intravenous injection of 2 MBq of ^18F-FPTA-RGD2, the mouse was sacrificed and relevant organs were harvested. The blood was collected and immediately centrifuged for 5 min at 13,200 rpm. Liver, kidneys and tumor were homogenized and then centrifuged for 5 min at 13,200 rpm. After removal of the supernatants, the pellets were washed with 1 mL PBS. For each sample, supernatants of both centrifugation steps of blood, liver, and kidneys were combined and passed through C18 Sep-Pak cartridges. The urine sample was directly diluted with 1 mL of PBS and passed through a C18 Sep-Pak cartridge. The cartridges were each washed with 2 mL of water and eluted with 2 mL of ACN containing 0.1% TFA. After evaporation of the solvent, the residues were redissolved in 1 mL PBS and were injected onto the analytical HPLC. The eluent was collected with a fraction collector (0.5 min/fraction) and the radioactivity of each fraction was measured with the γ-counter.

A further series concerns stroke rats (dMCAO). The experiment in a line: microPET imaging of dMCAO stroke rats. The series is classed as in vivo, rat. The source says: Anesthesia for Sprague-Dawley rats (290-350 g) was induced by 5% isoflurane and maintained by 2-3% isoflurane. A ventral midline incision was made and the two CCAs were isolated. Snares were placed around the CCAs and the animal was placed on its right side. A 2 cm vertical scalp incision was made midway between the left eye and ear. The temporalis muscle was bisected and a 2 mm burr hole was made at the junction of the zygomatic arch and squamous bone. The distal MCA was exposed and ligated above the rhinal fissure with a 10-0 suture. The CCA snares were tightened to occlude the CCAs for 2 h. In the permanent MCA occlusion model, both CCAs were then released, while the distal MCA remained occluded.

In the case of `O=C([O-])CN1CCN(CC(=O)[O-])CCN(CC(=O)[O-])CC1.[Ga+3]` [Ga-NOTA], the log stability constant in series [1] is listed as 30.98.

For `N=C(N)NCCC[C@@H]1NC(=O)[C@H](CCCCNC(=O)CC[C@H](NC(=O)CC[C@H](NC(=O)CN2CCN(CC(=O)O)CCN(CC(=O)O)CCN(CC(=O)O)CC2)C(=O)N[C@@H](CCC(=O)NCCCC[C@@H]2NC(=O)[C@@H](Cc3ccc(O)cc3)NC(=O)[C@H](CC(=O)O)NC(=O)CNC(=O)[C@H](CCCNC(=N)N)NC2=O)C(=O)NCCCC[C@@H]2NC(=O)[C@@H](Cc3ccc(O)cc3)NC(=O)[C@H](CC(=O)O)NC(=O)CNC(=O)[C@H](CCCNC(=N)N)NC2=O)C(=O)NCCCC[C@@H]2NC(=O)[C@@H](Cc3ccc(O)cc3)NC(=O)[C@H](CC(=O)O)NC(=O)CNC(=O)[C@H](CCCNC(=N)N)NC2=O)NC(=O)[C@@H](Cc2ccc(O)cc2)NC(=O)[C@H](CC(=O)O)NC(=O)CNC1=O` [^64Cu-DOTA-RGD tetramer, ^64Cu-DOTA-E{E[c(RGDyK)]2}2, metal not drawn], the tissue uptake at 2 h in “in vivo [2]” (10 mg/kg, U87MG tumor uptake with blocking) was found to be 2.2 ± 0.1 %ID/g; in “in vivo [2]” (U87MG tumor uptake), 8.6 ± 1 %ID/g. In “in vivo [2]” (9.3 MBq, U87MG tumor uptake), the tissue uptake at 6 h turned out to be 7.7 ± 1.6 %ID/g. In addition, the tissue uptake at 20 h in the series “in vivo [2]” (9.3 MBq, U87MG tumor uptake) came out at 6.4 ± 0.7 %ID/g; in “in vivo [3]” (9.3 MBq), 3.6 ± 0.4 %ID/g; in “in vivo [4]”, 5 ± 0.7 %ID/g. Further, in “in vivo [2]” (U87MG tumor uptake), the tissue uptake at 0.5 h stood at 10.3 ± 1.6 %ID/g. The tissue uptake at 1 h in the series “in vivo [2]” (U87MG tumor uptake) was 9.6 ± 1.4 %ID/g; in “in vivo [3]” it was 4.4 ± 0.9 %ID/g. Also, the “myocardial tracer uptake after MI induction” value in series [5] is “occurs in areas supplied by the ligated coronary artery”.

For the molecule “^18F-FB-mini-PEG-E[c(RGDyK)]2 [^18F-FPRGD2]”, the “residence time for kidneys” value in the series with U87MG tumor-bearing mice was 0.016 h. In addition, in series [6], the defluoridation entry is on record as “No defluoridation was observed”, the “extraction efficiency (radioactivity in the supernatant)” value is 75-95% and the “non-retained fraction (activity not trapped on C18 cartridges)” value is given as “less than 30%”. The “myocardial tracer uptake after MI induction” value in series [5] is given as “significant increase in uptake”. Besides, in the series on stroke rats (dMCAO) (day 1 after dMCAO), the “microPET signal in wound and stroke lesion” value is “Both wound and the lesion were detectable at day 1”. The “microPET signal in wound and stroke lesion” value with stroke rats (dMCAO) (day 9 after dMCAO) is “the signal in the lesion reflecting angiogenesis is remained”.
